Experimental data published in patent publication US7074789B2, “Kinase inhibitors” (Amgen Inc., priority 1999, dated 2006).
Where two headings read alike, the source gives them in different places.

Columns and labels:
Assay type in all cases: biochemical
c-Met = target: T1, c-Met (Homo sapiens, UniProt P08581); assay: Kinase inhibition assay (33P transfer), c-Met; conditions: Table 2, kinase inhibition class; read-out: Met-1
T1 construct: Kinases are expressed as either kinase domains or full length constructs; made in house
In short: (§1)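 IC50: inhibitor concentration lowering 33P incorporation into immobilised substrate by 50%. Label transferred from ATP to poly(Glu,Tyr) 4:1 or poly(Arg,Ser) 3:1 is measured after a 0.5% phosphoric acid wash by liquid scintillation.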

Itk = target: T2, Itk (Homo sapiens, UniProt Q08881); assay: Kinase inhibition assay (33P transfer), Itk; conditions: read-out: Itk-1
T2 construct: Kinases are expressed as either kinase domains or full length constructs; made in house
T2 sequence (Q08881 1-620): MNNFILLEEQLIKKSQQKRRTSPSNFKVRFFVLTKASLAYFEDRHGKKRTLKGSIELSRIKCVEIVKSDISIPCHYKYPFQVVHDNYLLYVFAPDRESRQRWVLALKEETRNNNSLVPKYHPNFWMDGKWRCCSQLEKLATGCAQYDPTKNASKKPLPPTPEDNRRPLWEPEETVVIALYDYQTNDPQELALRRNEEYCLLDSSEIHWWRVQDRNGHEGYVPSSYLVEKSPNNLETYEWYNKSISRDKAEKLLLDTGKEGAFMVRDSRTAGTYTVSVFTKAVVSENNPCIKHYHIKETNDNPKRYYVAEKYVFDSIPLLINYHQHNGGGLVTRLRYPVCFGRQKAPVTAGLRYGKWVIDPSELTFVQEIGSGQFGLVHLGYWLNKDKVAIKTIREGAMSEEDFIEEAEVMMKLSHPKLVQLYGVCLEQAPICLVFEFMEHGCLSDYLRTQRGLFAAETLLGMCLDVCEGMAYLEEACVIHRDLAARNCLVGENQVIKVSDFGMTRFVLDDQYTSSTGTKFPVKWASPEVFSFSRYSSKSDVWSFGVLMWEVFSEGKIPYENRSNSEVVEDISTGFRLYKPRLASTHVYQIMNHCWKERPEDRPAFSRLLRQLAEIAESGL
In short: as §1

Zap-70 = target: T3, Zap-70 (Homo sapiens, UniProt P43403); assay: Kinase inhibition assay (33P transfer), Zap-70; conditions: read-out: Zap-1
T3 construct: Kinases are expressed as either kinase domains or full length constructs; made in house
T3 sequence (P43403 1-619): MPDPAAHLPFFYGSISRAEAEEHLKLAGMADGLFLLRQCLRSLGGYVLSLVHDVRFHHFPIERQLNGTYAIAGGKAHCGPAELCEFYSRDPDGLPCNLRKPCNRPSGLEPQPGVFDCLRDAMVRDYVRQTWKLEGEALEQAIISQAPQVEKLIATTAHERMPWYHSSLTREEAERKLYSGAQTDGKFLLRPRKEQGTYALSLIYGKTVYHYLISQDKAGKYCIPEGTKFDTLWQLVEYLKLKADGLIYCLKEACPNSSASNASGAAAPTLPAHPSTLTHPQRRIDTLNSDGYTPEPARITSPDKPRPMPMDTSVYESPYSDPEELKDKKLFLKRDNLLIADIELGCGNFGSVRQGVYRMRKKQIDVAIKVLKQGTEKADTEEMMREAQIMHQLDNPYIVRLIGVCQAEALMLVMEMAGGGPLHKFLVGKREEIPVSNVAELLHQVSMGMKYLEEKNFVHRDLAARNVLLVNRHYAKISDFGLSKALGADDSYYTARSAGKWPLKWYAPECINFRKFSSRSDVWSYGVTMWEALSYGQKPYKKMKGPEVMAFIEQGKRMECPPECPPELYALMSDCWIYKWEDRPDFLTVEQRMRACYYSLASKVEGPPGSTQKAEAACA
In short: (§2)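 Each kinase, expressed as a GST- or polyHis-tagged domain or full-length protein, phosphorylated plate-attached poly(Glu,Tyr) 4:1 or poly(Arg,Ser) 3:1 using 33P-ATP. Bound radioactivity was measured by scintillation after a 0.5% phosphoric acid wash.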

Lck = target: T4, Lck (Homo sapiens, UniProt P06239); assay: Kinase inhibition assay (33P transfer), Lck; conditions: read-out: Lck-1
T4 construct: Kinases are expressed as either kinase domains or full length constructs; made in house
In short: as §2

EGFR = target: T5, EGFR (Homo sapiens, UniProt P00533); assay: Kinase inhibition assay (33P transfer), EGFR; conditions: Table 2, kinase inhibition class; read-out: EGFR-1
T5 construct: Kinases are expressed as either kinase domains or full length constructs; made in house
In short: as §1

Kdr = target: T6, Kdr (Homo sapiens, UniProt P35968); assay: Kinase inhibition assay (33P transfer), Kdr; conditions: read-out: KDR-1
T6 construct: Kinases are expressed as either kinase domains or full length constructs; made in house
In short: as §2

AKT = target: T7, AKT (Homo sapiens, UniProt Q9Y243); assay: Kinase inhibition assay (33P transfer), AKT; conditions: Table 2, kinase inhibition class; read-out: AKT3-1
T7 construct: Kinases are expressed as either kinase domains or full length constructs; made in house
In short: as §2

Tek = target: T8, Tek (Homo sapiens, UniProt Q02763); assay: Kinase inhibition assay (33P transfer), Tek; conditions: read-out: Tek-1
T8 construct: Kinases are expressed as either kinase domains or full length constructs; made in house
From the text: The inhibitor compounds described herein are screened in the following manner. Kinases suitable for use in the following protocol to determine kinase activity of the compounds described herein include, -but are not limited to: Lck, Lyn, Src, Fyn, Syk, Zap-70, Itk, Tec, Btk, EGFR, ErbB2, Kdr, Flt-1, Flt-3, Tek, c-Met, InsR, and AKT.
Kinases are expressed as either kinase domains or full length constructs fused to glutathione S-transferase (GST) or polyHistidine tagged fusion proteins in either E. colior Baculovirus-High Five expression systems. They are purified to near homogeneity by affinity chromatography essentially as previously described (Lehr et al., 1996; Gish et al., 1995). In some instances, kinases are co-expressed or mixed with purified or partially purified regulatory polypeptides prior to measurement of activity.
Kinase activity and inhibition are measured essentially by established protocols (Braunwalder et al., 1996). Briefly, The transfer of ^33PO4 from ATP to the synthetic substrates poly(Glu, Tyr) 4:1 or poly(Arg, Ser) 3:1 attached to the bioactive surface of microtiter plates serves as the basis to evaluate enzyme activity. After an incubation period, the amount of phosphate transferred is measured by first washing the plate with 0.5% phosphoric acid, adding liquid scintillant, and then counting in a liquid scintillation detector. The IC50 is determined by the concentration of compound that causes a 50% reduction in the amount of […] incorporated onto the substrate bound to the plate.

T7 sequence (Q9Y243 whole entry, the tested form may be a part): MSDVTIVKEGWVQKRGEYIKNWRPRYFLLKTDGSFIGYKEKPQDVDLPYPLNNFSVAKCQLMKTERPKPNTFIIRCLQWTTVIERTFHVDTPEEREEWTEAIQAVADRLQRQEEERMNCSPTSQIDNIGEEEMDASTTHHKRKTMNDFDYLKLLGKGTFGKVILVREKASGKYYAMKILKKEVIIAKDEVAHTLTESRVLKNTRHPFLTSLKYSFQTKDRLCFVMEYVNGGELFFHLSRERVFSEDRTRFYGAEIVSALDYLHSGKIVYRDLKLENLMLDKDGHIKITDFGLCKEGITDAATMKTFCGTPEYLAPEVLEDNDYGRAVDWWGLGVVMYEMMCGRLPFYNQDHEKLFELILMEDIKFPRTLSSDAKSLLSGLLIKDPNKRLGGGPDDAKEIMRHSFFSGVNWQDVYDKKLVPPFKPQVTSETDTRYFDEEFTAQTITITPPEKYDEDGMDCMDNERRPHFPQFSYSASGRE
T8 sequence (Q02763 23-1124, species assumed): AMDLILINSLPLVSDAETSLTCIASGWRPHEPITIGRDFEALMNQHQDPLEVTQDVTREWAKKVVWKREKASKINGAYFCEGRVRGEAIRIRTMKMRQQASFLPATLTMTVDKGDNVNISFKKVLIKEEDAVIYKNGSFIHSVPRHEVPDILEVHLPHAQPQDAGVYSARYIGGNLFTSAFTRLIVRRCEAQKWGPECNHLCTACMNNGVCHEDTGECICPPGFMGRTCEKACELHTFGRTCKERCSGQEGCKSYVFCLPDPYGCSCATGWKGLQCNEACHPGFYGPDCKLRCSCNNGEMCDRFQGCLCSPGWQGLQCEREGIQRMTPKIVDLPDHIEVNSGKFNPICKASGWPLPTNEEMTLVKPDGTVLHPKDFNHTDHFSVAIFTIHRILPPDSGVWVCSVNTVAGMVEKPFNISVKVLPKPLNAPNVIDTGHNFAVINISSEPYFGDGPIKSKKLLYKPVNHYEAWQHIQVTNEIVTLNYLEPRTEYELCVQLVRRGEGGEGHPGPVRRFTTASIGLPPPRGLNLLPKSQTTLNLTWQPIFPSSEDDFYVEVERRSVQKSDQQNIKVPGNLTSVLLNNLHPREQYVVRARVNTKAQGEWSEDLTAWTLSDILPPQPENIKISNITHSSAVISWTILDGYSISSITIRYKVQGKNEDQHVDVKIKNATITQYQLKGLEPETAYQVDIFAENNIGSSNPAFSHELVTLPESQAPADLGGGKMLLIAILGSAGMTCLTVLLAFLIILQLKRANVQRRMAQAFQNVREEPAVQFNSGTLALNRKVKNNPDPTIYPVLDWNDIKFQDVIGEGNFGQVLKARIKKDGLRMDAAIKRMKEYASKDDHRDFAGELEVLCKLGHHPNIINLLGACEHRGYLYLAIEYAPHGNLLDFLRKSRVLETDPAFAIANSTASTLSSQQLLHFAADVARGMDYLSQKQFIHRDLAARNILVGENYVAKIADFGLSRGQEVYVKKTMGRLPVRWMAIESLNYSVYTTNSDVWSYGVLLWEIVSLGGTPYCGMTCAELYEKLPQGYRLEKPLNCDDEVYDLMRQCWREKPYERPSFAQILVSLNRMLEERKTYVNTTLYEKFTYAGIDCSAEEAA
T1 sequence (P08581 25-1390): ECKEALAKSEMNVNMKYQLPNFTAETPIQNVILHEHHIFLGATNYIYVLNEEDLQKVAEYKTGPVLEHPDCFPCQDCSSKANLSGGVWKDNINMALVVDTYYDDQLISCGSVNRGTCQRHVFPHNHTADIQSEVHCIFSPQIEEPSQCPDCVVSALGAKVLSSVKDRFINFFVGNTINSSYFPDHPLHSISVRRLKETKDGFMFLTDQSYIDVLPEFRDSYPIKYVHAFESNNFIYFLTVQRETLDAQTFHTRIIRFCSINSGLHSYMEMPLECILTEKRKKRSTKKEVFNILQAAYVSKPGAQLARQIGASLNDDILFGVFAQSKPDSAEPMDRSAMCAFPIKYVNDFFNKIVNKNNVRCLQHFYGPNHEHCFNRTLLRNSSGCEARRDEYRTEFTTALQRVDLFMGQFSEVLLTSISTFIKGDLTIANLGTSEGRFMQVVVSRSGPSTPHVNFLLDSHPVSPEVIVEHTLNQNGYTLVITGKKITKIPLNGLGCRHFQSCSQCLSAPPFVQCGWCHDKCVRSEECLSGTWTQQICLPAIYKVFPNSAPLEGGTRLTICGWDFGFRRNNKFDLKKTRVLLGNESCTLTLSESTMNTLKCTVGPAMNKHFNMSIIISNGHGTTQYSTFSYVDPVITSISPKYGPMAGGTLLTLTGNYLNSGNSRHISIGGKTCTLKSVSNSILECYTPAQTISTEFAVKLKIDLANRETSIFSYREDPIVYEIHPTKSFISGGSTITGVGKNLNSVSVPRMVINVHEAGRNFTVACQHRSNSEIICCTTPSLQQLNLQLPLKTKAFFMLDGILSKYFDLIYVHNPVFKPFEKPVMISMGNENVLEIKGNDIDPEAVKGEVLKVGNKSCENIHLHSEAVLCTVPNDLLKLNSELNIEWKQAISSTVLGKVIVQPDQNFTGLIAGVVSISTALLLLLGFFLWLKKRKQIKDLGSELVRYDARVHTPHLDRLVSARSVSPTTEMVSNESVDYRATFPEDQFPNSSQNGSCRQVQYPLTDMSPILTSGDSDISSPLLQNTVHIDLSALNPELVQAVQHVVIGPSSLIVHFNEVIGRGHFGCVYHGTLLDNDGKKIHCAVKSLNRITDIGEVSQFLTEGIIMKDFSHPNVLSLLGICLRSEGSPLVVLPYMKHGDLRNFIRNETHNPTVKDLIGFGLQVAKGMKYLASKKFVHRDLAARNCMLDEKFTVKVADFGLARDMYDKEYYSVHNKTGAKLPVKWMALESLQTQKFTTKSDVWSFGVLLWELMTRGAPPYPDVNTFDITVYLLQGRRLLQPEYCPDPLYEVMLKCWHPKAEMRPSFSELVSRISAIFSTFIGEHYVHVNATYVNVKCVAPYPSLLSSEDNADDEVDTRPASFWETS
T4 sequence (P06239 whole entry, species assumed, the tested form may be a part): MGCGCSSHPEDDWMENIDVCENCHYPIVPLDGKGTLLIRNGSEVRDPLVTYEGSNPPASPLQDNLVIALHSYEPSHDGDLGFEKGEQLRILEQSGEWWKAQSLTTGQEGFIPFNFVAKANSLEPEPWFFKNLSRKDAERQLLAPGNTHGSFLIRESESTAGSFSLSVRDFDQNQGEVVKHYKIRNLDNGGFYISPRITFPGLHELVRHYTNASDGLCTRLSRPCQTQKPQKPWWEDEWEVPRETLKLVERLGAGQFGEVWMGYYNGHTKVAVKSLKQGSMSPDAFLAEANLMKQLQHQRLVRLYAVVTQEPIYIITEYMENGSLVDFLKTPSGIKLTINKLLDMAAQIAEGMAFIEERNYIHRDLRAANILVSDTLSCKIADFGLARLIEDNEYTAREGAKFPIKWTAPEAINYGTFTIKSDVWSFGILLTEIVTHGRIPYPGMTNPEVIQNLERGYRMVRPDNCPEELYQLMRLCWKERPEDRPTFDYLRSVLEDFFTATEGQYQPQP
T6 sequence (P35968 20-1356, species assumed): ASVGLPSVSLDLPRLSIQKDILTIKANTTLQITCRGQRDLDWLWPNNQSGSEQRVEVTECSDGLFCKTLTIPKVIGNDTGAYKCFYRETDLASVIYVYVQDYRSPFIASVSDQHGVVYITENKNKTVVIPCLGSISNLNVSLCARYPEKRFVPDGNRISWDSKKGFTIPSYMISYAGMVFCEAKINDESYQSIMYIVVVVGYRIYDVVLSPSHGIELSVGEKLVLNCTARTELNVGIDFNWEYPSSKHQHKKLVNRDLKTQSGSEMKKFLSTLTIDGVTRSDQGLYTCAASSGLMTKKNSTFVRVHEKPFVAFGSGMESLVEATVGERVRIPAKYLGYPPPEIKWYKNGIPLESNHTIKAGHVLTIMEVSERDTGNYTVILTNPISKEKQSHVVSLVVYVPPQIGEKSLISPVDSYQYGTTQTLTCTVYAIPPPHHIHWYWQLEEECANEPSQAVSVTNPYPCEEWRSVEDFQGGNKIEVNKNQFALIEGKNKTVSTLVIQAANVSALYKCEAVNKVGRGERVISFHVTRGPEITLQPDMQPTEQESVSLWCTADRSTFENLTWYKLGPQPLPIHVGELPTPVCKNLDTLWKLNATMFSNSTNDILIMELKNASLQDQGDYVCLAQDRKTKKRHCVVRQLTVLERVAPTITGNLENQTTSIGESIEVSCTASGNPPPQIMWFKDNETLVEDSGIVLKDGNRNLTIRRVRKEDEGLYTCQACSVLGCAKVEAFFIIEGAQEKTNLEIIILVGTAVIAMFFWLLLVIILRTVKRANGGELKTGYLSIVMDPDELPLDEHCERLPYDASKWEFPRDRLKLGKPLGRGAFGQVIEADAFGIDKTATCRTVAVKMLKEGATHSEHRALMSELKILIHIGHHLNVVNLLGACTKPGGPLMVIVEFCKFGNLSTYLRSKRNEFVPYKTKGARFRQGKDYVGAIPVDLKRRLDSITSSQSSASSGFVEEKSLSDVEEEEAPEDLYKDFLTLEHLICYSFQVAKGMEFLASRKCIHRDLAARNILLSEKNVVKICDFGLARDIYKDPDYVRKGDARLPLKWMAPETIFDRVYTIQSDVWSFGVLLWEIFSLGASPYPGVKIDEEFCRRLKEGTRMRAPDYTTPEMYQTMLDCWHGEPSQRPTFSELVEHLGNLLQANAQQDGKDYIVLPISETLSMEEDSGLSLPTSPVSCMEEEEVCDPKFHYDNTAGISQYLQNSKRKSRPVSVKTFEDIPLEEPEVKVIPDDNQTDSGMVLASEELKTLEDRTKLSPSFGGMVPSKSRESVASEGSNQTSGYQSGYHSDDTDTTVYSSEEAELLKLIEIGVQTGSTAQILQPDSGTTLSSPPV

Compound | IC50 (c-Met) | IC50 (Itk) | IC50 (Zap-70) | IC50 (Lck) | IC50 (EGFR) | IC50 (Kdr) | IC50 (AKT) | IC50 (Tek) | IC50 (Itk; Table 3) | IC50 (Zap-70; Table 3) | IC50 (Lck; Table 3) | IC50 (Kdr; Table 3)
Nc1nc2ccccc2n1-c1ncnc(Nc2ccc(OC(F)(F)F)cc2)n1 [Compound 647] | > 11.6 µM | > 11.6 µM | > 11.6 µM | > 11.6 µM | 1.03 to 6.2 µM | 1.03 to 6.2 µM | > 11.6 µM | > 11.6 µM |  |  |  | 
O=c1[nH]c2ccccc2n1-c1ncnc(Nc2cnc3ccccc3c2)n1 [Compound 508] | > 12.7 µM | 6.75 to 9.85 µM | > 12.7 µM | 1.13 to 6.75 µM | > 12.7 µM | 1.13 to 6.75 µM | > 12.7 µM | 6.75 to 9.85 µM |  |  |  | 
O=c1[nH]c2ccccc2n1-c1ncnc(Nc2ccc(C(F)(F)F)cc2)n1 [Compound 505] | > 12.1 µM | > 12.1 µM | 9.4 to 12.1 µM | > 12.1 µM | > 12.1 µM | > 12.1 µM | > 12.1 µM | 6.45 to 9.4 µM |  |  |  | 
COc1cc(Nc2ncnc(Nc3cccc4ncccc34)n2)cc(OC)c1OC [Compound 695] | > 11.1 µM | 0.989 to 5.93 µM | > 11.1 µM | < 0.989 µM | 5.93 to 8.65 µM | < 0.989 µM | > 11.1 µM | 5.93 to 8.65 µM |  |  |  | 
O=c1[nH]c2ccccc2n1-c1ncnc(Nc2ccc(Cl)cc2Cl)n1 [Compound 504] | > 12.1 µM | > 12.1 µM | > 12.1 µM | > 12.1 µM | > 12.1 µM | > 12.1 µM | > 12.1 µM | 1.07 to 6.43 µM |  |  |  | 
COc1cc(Nc2ncnc(Nc3nccs3)n2)cc(OC)c1OC [Compound 442] | > 12.5 µM |  |  |  | > 12.5 µM |  | > 12.5 µM | > 12.5 µM | > 12.5 µM | > 12.5 µM | > 12.5 µM | 6.66 to 9.71 µM
COc1cc(Nc2ncnc(-c3cccnc3Cl)n2)cc(OC)c1OC [Compound 1075] | > 12 µM | > 12 µM | > 12 µM | > 12 µM | > 12 µM | 9.36 to 12 µM | > 12 µM | > 12 µM |  |  |  | 
Nc1ncnc(Nc2ccc3c(c2)OCO3)n1 [Compound 1025] | > 19.5 µM |  |  |  | 15.1 to 19.5 µM |  | > 19.5 µM | > 19.5 µM | > 19.5 µM | 15.1 to 19.5 µM | > 19.5 µM | 10.4 to 15.1 µM
COc1cc(OC)nc(Nc2ncnc(-n3c(=O)[nH]c4ccccc43)n2)n1 [Compound 491] | > 12.3 µM | > 12.3 µM | > 12.3 µM | > 12.3 µM | > 12.3 µM | 9.55 to 12.3 µM | > 12.3 µM | 1.09 to 6.55 µM |  |  |  | 

Second part, the compound after the results:

IC50 (c-Met) | IC50 (Itk) | IC50 (Zap-70) | IC50 (Lck) | IC50 (EGFR) | IC50 (Kdr) | IC50 (AKT) | IC50 (Tek) | IC50 (Itk; Table 3) | IC50 (Zap-70; Table 3) | IC50 (Lck; Table 3) | IC50 (Kdr; Table 3) | Compound
1.15 to 6.91 µM | 1.15 to 6.91 µM | 1.15 to 6.91 µM | 1.15 to 6.91 µM | 1.15 to 6.91 µM | < 1.15 µM | 6.91 to 10.1 µM | 1.15 to 6.91 µM |  |  |  |  | Nc1nc2ccccc2n1-c1ncnc(Nc2ccc3c(c2)OCO3)n1 [Compound 526]
> 10.7 µM |  |  |  | > 10.7 µM |  | > 10.7 µM | > 10.7 µM | > 10.7 µM | > 10.7 µM | > 10.7 µM | 0.949 to 5.69 µM | COc1cc(Nc2ncnc(-n3c(N(C)C)nc4ccccc43)n2)cc(OC)c1OC [Compound 405]
0.829 to 4.97 µM | 4.97 to 7.25 µM | > 9.33 µM | 0.829 to 4.97 µM | 0.829 to 4.97 µM | 0.829 to 4.97 µM | > 9.33 µM | > 9.33 µM |  |  |  |  | COc1cc(Nc2ncnc(Nc3ccc(NC(=O)O[C@@H]4CCOC4)cc3)n2)cc(OC)c1OC [Compound 693]
> 11 µM | > 11 µM | > 11 µM | 0.975 to 5.85 µM | > 11 µM | > 11 µM | > 11 µM | > 11 µM |  |  |  |  | COC(=O)C(c1ccccc1)c1ncnc(Nc2cc(OC)c(OC)c(OC)c2)n1 (stereo not shown) [Compound 1038]
1.07 to 6.45 µM | 1.07 to 6.45 µM | 1.07 to 6.45 µM | 1.07 to 6.45 µM | 1.07 to 6.45 µM | 1.07 to 6.45 µM | 1.07 to 6.45 µM | 1.07 to 6.45 µM |  |  |  |  | Nc1nc2ccccc2n1-c1ncnc(Nc2ccc(Cl)c(Cl)c2)n1 [Compound 528]
1.09 to 6.53 µM | > 12.2 µM | > 12.2 µM | > 12.2 µM | 1.09 to 6.53 µM | 6.53 to 9.53 µM | > 12.2 µM | > 12.2 µM |  |  |  |  | CC(C)(C)c1cc(Nc2ncnc(Nc3cccc(CC(=O)O)c3)n2)[nH]n1 [Compound 979]
> 8.8 µM | > 8.8 µM | > 8.8 µM | 6.84 to 8.8 µM | > 8.8 µM | 0.782 to 4.69 µM | > 8.8 µM | > 8.8 µM |  |  |  |  | COc1cc(Nc2ncnc(-n3c(NCCCc4ccccc4)nc4ccccc43)n2)cc(OC)c1OC [Compound 945]
> 8 µM | > 8 µM | > 8 µM | 6.22 to 8 µM | > 8 µM | < 0.711 µM | > 8 µM | > 8 µM |  |  |  |  | COc1cc(Nc2ncnc(-n3c(NCc4ccc(Br)cc4)nc4ccccc43)n2)cc(OC)c1OC [Compound 940]
> 8.76 µM | > 8.76 µM | > 8.76 µM | > 8.76 µM | > 8.76 µM | < 0.779 µM | > 8.76 µM | > 8.76 µM |  |  |  |  | COc1cc(Nc2ncnc(-n3c(N[C@H](CO)c4ccccc4)nc4ccccc43)n2)cc(OC)c1OC [Compound 1035]
> 9.03 µM | 4.81 to 7.02 µM | > 9.03 µM | 4.81 to 7.02 µM | > 9.03 µM | 0.802 to 4.81 µM | > 9.03 µM | > 9.03 µM |  |  |  |  | COc1cc(Nc2ncnc(-n3c(NCCc4ccncc4)nc4ccccc43)n2)cc(OC)c1OC [Compound 948]
6.75 to 9.85 µM | > 12.7 µM | 1.13 to 6.75 µM | 6.75 to 9.85 µM | 1.13 to 6.75 µM | 6.75 to 9.85 µM | > 12.7 µM | 6.75 to 9.85 µM |  |  |  |  | O=c1[nH]c2ccccc2n1-c1ncnc(Nc2nccc3ccccc23)n1 [Compound 689]
